33 compounds from patent US20170173008A1, “ANTIMICROBIAL AGENTS AND SCREENING METHODS” (PRESIDENT AND FELLOWS OF HARVARD COLLEGE, priority 2014, published 2017) can be followed below.

One experiment addresses T1, DsbB (Escherichia coli, UniProt P0A6M2, C49V/C8A).
T1 construct: expressed in transfected cells; host or cells: E. coli DHB7935 (HK295 ΔdsbB λatt::malF-lacZ102, φ80::pDSW206dsbBhis6-c-myc)
Kind of experiment: cell-based. Format: cell-based, E. coli. As to conditions: for EC50 RATIO (EC50 compound 16/EC50): E. coli DHB7935, liquid media.

Another experiment concerns M. tuberculosis H37Rv. Kind of experiment: M. tuberculosis H37Rv growth inhibition (Alamar Blue MIC). In kind it is cell-based, Mycobacterium tuberculosis. The settings on record: three different media. Background: Resazurin is reduced to fluorescent resorufin, in cell work by metabolically active cells.
Another experiment has as its target E. coli DsbB (Escherichia coli, UniProt P0A6M2). Kind of experiment: Blue/white beta-galactosidase agar assay, DsbB-based E. coli strain. Format: cell-based. As to conditions: agar assay.
Another experiment concerns the target T2, purified EcDsbB (Escherichia coli, UniProt P0A6M2, C49V/C8A).
T2 construct: made in house; host or cells: E. coli
Kind of experiment: In vitro assay of purified DsbB (ubiquinone reduction). In kind it is biochemical, E. coli. The settings on record: IC50 (μM), Table 9. The source says: In addition to the in vivo assays of MICs, we have purified DsbB from E. coli and assessed the concentration dependence for inhibition of the enzyme's activity in oxidizing DsbA.
In this assay, we determine the concentration of a compound necessary to reduce the activity of purified DsbB enzyme by 50%. DsbB uses ubiquinone as a co-factor for the generation of disulfide bonds. DsbB oxidizes DsbA and reduces ubiquinone. When it is in the oxidized state, ubiquinone absorbs strongly at 275 nm but it has a diminished absorbance when it is in the reduced state at the same wavelength. Therefore, DsbB activity can be measured by the reduction of ubiquinone and this is assessed by following the decrease of absorbance of ubiquinone at 275 nm. The assay uses 20 μM purified and DTT-reduced DsbA, 20 uM UbQ-5, and 2 nM purified DsbB at pH6.0.
We tested several compounds for their inhibitory effect on EcDsbB-mediated ubiquinone reduction using purified enzymes. In this assay, reduced DsbA provides the source of electrons that are used by EcDsbB to reduce ubiquinone-5. The compounds show dose-dependent inhibition of EcDsbB with half-maximal inhibitory concentrations (IC50) in the low-μM range.

For the next experiment, the target named is T3, VKOR of M. tuberculosis (Mycobacterium tuberculosis, UniProt I6X5W1).
T3 sequence (I6X5W1 1-210): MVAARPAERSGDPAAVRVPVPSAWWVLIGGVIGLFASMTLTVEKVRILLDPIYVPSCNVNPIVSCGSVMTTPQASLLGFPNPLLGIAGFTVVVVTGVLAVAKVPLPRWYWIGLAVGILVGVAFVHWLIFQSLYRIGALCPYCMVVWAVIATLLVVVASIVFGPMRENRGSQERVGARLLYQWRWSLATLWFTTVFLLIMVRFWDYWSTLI
In kind it is cell-based. As to conditions: agar assay.

A word on the EC50: it is the concentration that produces a half-maximal response. As a reminder, the IC50 is the concentration needed to halve the response being measured. Higher therefore signals weaker potency in that assay.

T1 sequence (P0A6M2 whole entry C8A/C49V): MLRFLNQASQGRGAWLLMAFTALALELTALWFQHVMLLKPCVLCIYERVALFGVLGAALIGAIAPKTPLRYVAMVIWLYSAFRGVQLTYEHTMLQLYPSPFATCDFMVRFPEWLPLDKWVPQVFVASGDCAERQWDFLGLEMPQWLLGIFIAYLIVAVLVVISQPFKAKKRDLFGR
T2 sequence (P0A6M2 whole entry C8A/C49V): as above
E. coli DsbB, sequence (P0A6M2 whole entry): as the sequence (P0A6M2 whole entry C8A/C49V) above, with A8C, V49C counted along it

For the compound `O=c1c(Cl)c(Cl)cnn1Cc1c(F)cccc1Cl` [Compound 16.22], the EC50 on DsbB worked out at 18.1 µM.
As to `O=c1c(Cl)c(Cl)cnn1Cc1ccccc1Br` [Compound 16.12], at DsbB, the EC50 turned out to be 0.47 µM, the “fold more inhibitory than compound 16” value is recorded as 10 fold and the “EC50 RATIO (EC50 compound 16/EC50)” value was determined as 10.77.
For `O=c1c(Cl)c(Cl)cnn1Cc1ncccc1Cl` [Compound 16.40, 4,5-dichloro-2-((3-chloropyridin-2-yl)methyl)pyridazin-3(2H)-one], a half-maximal response on DsbB (EC50) required 10.8 µM.
As for `COC(C)(C)C#CC(=O)c1cccc2ccccc12` [Compound 23], in the experiment with M. tuberculosis H37Rv, the “effect on growth of M. tuberculosis (in words)” value (“effect on growth” for short) was “inhibitor of M. tuberculosis growth”. Moreover, the “inhibition of the DsbB-based strain, in words” value against E. coli DsbB is “weak inhibitor”.
Regarding `O=c1c(Cl)c(Cl)cnn1-c1ccccc1` [Compound 16.2], the IC50 at purified EcDsbB is 2.34 µM. At DsbB, it took 2.04 µM to reach a half-maximal effect (EC50), the “fold more inhibitory than compound 16” value is recorded as 10 fold and the “EC50 RATIO (EC50 compound 16/EC50)” value is 2.49.
Consider `N#Cc1cccc(Cn2ncc(Cl)c(Cl)c2=O)c1` [Compound 16.9], for which the EC50 at DsbB was 509 µM.
On to `O=c1c(Cl)c(Cl)cnn1-c1ccccc1F` [Compound 16.24], for which, at DsbB, the EC50 came to 13.7 µM and the “EC50 RATIO (EC50 compound 16/EC50)” value stood at 0.73.
Turning to `O=c1c(Cl)c(Cl)cnn1Cc1cccs1` [Compound 16.41, 4,5-dichloro-2-(thiophen-2-ylmethyl)pyridazin-3(2H)-one], the response on DsbB was half-maximal at 33.1 µM (EC50).
On purified EcDsbB, `CCCCNc1c(Cl)cnn(-c2ccccc2)c1=O` [Compound 13] showed an IC50 of 8.12 µM. This compound also returned an EC50 at DsbB of 30.4 µM.
`O=c1c(Cl)c(Cl)cnn1Cc1c(Cl)cccc1Cl` [Compound 16.37, 4,5-dichloro-2-(2,6-dichlorobenzyl)pyridazin-3(2H)-one] gave an EC50 at DsbB of 6570 µM.
As for `Cc1ccccc1Cn1ncc(Cl)c(Cl)c1=O` [Compound 16.13], on DsbB, the midpoint of the response, the EC50, lay at 3.56 µM and the “EC50 RATIO (EC50 compound 16/EC50)” value came out at 1.43.
Consider `O=c1cc(Cl)cnn1Cc1ccccc1Cl` [Compound 16.25, 5-chloro-2-(2-chlorobenzyl)pyridazin-3(2H)-one], for which a half-maximal effect at DsbB (EC50) was put at 8.37 µM.
The same measure, in the same setting: under `O=c1c(Cl)c(Br)cnn1Cc1ccccc1Cl` [Compound 16.44, 5-bromo-4-chloro-2-(2-chlorobenzyl)pyridazin-3(2H)-one] stands 0.32 µM.
For `O=c1c(N2CCCC2)c(Cl)cnn1-c1ccccc1` [Compound 15], the IC50 on purified EcDsbB turned out to be 8.24 µM. At DsbB, this compound showed an EC50 of 28.1 µM.
At DsbB, `O=c1c(Cl)c(Cl)cnn1Cc1ccc([N+](=O)[O-])cc1` [Compound 16.8] displayed an EC50 of 38.7 µM.
Still for that read-out and setting: the value for `O=c1c(Br)c(Br)cnn1Cc1ccccc1Cl` [Compound 16.27, 4,5-dibromo-2-(2-chlorobenzyl)pyridazin-3(2H)-one] was 0.025 µM.
For the compound `Cc1nnc(-c2cccc(C)c2C)c(C)n1` [Compound 8], the “effect on growth” value with M. tuberculosis H37Rv is reported as “no effects”.
Regarding `O=c1c(Cl)c(Cl)cnn1Cc1ccccc1OC(F)(F)F` [Compound 16.36, 4,5-dichloro-2-(2-(trifluoromethoxy)benzyl)pyridazin-3(2)-one], it took 7.12 µM to reach a half-maximal effect at DsbB (EC50).
On to `O=c1c(Cl)c(Cl)cnn1Cc1ccccc1C(F)(F)F` [Compound 16.35, 4,5-dichloro-2-(2-(trifluoromethyl)benzyl)pyridazin-3(2H)-one], for which the EC50 at DsbB was determined as 2.81 µM.
The compound `COc1c(Cl)cnn(-c2cccc(C)c2)c1=O` [Compound 17] displayed an IC50 against purified EcDsbB of 5.42 µM. The compound further showed a 50% effective concentration (EC50) on DsbB of 72.8 µM.
Compound `COc1cccc(Cn2ncc(Cl)c(Cl)c2=O)c1` [Compound 16.11] gave an EC50 on DsbB of 232 µM.
The same measure, in the same setting: under `O=c1c(Cl)c(Cl)cnn1Cc1sccc1Cl` [Compound 16.42, 4,5-dichloro-2-((3-chlorothiophen-2-yl)methyl)pyridazin-3(2H)-one] stands 1.45 µM.
Regarding `Cc1oncc1C(=O)Nc1ccccc1` [Compound 4], the “effect on growth” value in the experiment on M. tuberculosis H37Rv was “no effects”.
`Cc1c(Cl)cnn(Cc2ccccc2Cl)c1=O` [Compound 16.26, 5-chloro-2-(2-chlorobenzyl)-4-methylpyridazin-3(2H)-one]: on DsbB, it took 18.7 µM to reach a half-maximal effect (EC50).
On to `O=c1c(Br)c(Cl)cnn1Cc1ccccc1Cl` [Compound 16.43, 4-bromo-5-chloro-2-(2-chlorobenzyl)pyridazin-3(2H)-one], for which the EC50 on DsbB is 0.29 µM.
On to `O=C1c2ccccc2C(=O)C1c1ccc(Br)cc1` [brominedione, reference compound], for which the “inhibition in the VKOR screen (MtbVKOR-based strain), in words” value against VKOR of M. tuberculosis is recorded as “strong inhibitor”. For the same compound, the “inhibition of the DsbB-based strain, in words” value against E. coli DsbB is given as “not of the DsbB-based strain”.
Turning to `Cc1cccc(Cn2ncc(Cl)c(Cl)c2=O)c1` [Compound 16.4], half-maximal inhibition on purified EcDsbB (IC50) was put at 1.27 µM. Also, at DsbB, the 50% effective concentration (EC50) worked out at 13.9 µM and the “EC50 RATIO (EC50 compound 16/EC50)” value stood at 0.37.
Consider `O=c1c(Br)c(Br)cnn1Cc1ccccc1` [Compound 16.17], for which, at DsbB, the midpoint of the response, the EC50, lay at 13.2 µM.
Regarding `O=c1c(Cl)c(Cl)cnn1Cc1ccccc1F` [Compound 16.23], on DsbB, the EC50 was 3.09 µM and the “EC50 RATIO (EC50 compound 16/EC50)” value is reported as 1.65.
`CCOc1c(Cl)cnn(-c2ccccc2)c1=O` [Compound 14] had an IC50 against purified EcDsbB of 6.57 µM. Moreover, at DsbB, the EC50 is 25.6 µM.
For the compound `O=c1c(Cl)c(Cl)cnn1-c1ccccc1Cl` [Compound 16.20], at DsbB, the EC50 is 1.34 µM and the “EC50 RATIO (EC50 compound 16/EC50)” value turned out to be 3.80.
Turning to `O=c1c(Cl)c(Cl)cnn1Cc1ccncc1Cl` [Compound 16.39], on DsbB, a half-maximal effect (EC50) was put at 15.2 µM.
Turning to `N#Cc1ccccc1Cn1ncc(Cl)c(Cl)c1=O` [Compound 16.14], at DsbB, the midpoint of the response, the EC50, lay at 13.2 µM and the “EC50 RATIO (EC50 compound 16/EC50)” value is 0.39.
